The text below walks through data of patent US9657009B2, “Heteroaryl substituted pyridyl compounds useful as kinase modulators” (BRISTOL-MYERS SQUIBB COMPANY, priority 2012, dated 2017).

Test [1] deals with IRAK4 (Homo sapiens (Human), UniProt Q9NWZ3). Nature of the test: IRAK4 Inhibition Assay. It counts as biochemical. How it is done: IRAK4 Inhibition Assay The assays were performed in U-bottom 384-well plates. […] The reaction was initiated by the combination of IRAK4 with substrates and test compounds. The reaction mixture was incubated at room temperature for 60 min. and terminated by adding 45 μL of 35 mM EDTA to each sample.

Test [2] relates to TLR2 induced IL-6 in peripheral blood mononuclear cells (PBMCs). As to the kind of experiment: PBMC TLR2 Induced IL-6 Assay. It counts as cell-based. As to conditions: lipoteichoic acid 10 μg/ml, IL-6 by ELISA; for IC50: values without asterisk, read-out: Cell IC50. How it is done:
PBMC TLR2 Induced IL-6 Assay Peripheral blood mononuclear cells (PBMCs) were isolated from human blood containing the anti-coagulant EDTA (2.5 mM) by centrifugation over a FICOLL® gradient. […] At the end of the culture, plates were centrifuged at 1800 rpm for 10 minutes to pellet the cells. Supernatants were harvested and analyzed for IL-6 levels by ELISA (BD Biosciences, San Jose, Calif.).
(In an ELISA, binding on a coated surface is turned into a signal by an enzyme label.)

Setting [3] is: ATP 500 μM; IRAK4 0.6 nM; 60 min at room temperature; read-out: IRAK4 IC50.
Where [4] appears, read: human PBMCs, 5 hours, values marked * are EC50, read-out: Cell EC50 (*EC50).
The mark [5] stands for this setting: read-out: IRAK4 IC50; ATP 500 μM; IRAK4 0.6 nM; 60 min at room temperature.

Each structure is given as a SMILES string. Where two headings read alike, the source gives them in different places.

Chain of IRAK4 (Q9NWZ3 whole entry, species assumed): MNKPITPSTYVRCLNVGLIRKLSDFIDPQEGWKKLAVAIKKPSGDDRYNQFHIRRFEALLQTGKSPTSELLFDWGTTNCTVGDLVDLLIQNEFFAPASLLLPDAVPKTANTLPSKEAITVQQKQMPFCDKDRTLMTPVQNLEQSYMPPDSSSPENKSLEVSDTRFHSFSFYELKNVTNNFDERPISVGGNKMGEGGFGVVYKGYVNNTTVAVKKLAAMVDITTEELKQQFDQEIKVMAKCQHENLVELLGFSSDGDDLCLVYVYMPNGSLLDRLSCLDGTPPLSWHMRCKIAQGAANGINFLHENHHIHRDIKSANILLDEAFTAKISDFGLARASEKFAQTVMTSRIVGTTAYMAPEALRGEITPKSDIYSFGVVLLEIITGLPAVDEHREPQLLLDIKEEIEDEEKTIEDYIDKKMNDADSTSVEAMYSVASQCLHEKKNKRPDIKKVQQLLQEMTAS

Usually IC50 stands for the concentration needed to halve the response being measured. With `CC(C)(O)[C@H](F)CNC(=O)c1cnc(Nc2ncc(C#N)cn2)cc1N[C@H]1CCC[C@@H]1F` [Example 54], the IC50 was determined as 5.9 nM in test [1] (setting [3]) and 126 nM in test [2] (human PBMCs, 5 hours).

On to `CC(C)(O)[C@H](F)CNC(=O)c1cnc(Nc2ncc(C#N)cn2)cc1N[C@H]1CCC[C@@H]1F` [Example 55], for which the IC50 amounted to 5 nM in test [1] (setting [3]) and 27 nM in test [2] (human PBMCs, 5 hours).

A word on the EC50: it is the concentration giving half of the maximal effect. Turning to `CC(C)(O)[C@H](F)CNC(=O)c1cnc(Nc2ncc(C#N)cc2Cl)cc1NC1CCC(F)C1` (some centres unmarked) [Example 57], the IC50 in test [1] (setting [3]) was determined as 1.8 nM. Moreover, the EC50 in test [2] (setting [4]) was found to be 68 nM.

Consider `CC(C)(O)[C@H](F)CNC(=O)c1cnc(Nc2ncc(C#N)cc2Cl)cc1NC1CCC(F)C1` (some centres unmarked) [Example 62], for which, in test [1] (setting [3]), the IC50 stood at 1.7 nM. Moreover, the EC50 in test [2] (setting [4]) came out at 52 nM.

For `CC(C)(O)[C@H](F)CNC(=O)c1cnc(Nc2ncc(C#N)cc2Cl)cc1NC1CCCC1F` (some centres unmarked) [Example 70], the IC50 in test [1] (setting [3]) was determined as 3.2 nM. Further, the EC50 in test [2] (setting [4]) was 91 nM.

As to `CC(C)(O)[C@H](F)CNC(=O)c1cnc(Nc2ncc(C#N)cc2Cl)cc1NC1CCCC1F` (some centres unmarked) [Example 71], the IC50 in test [1] (setting [3]) was 2.8 nM. Besides, in test [2] (setting [4]), the EC50 worked out at 394 nM.

For the molecule `CC(C)(O)[C@H](F)CNC(=O)c1cnc(Nc2ncc(C#N)cc2Cl)cc1NC1CCCC1F` (some centres unmarked) [Example 73], the IC50 in test [1] (setting [3]) worked out at 1.5 nM. In test [2] (setting [4]), the EC50 came out at 132 nM.

Take `CC(C)(O)[C@H](F)CNC(=O)c1cnc(Nc2ncc(C#N)cc2Cl)cc1NC1CCCC1F` (some centres unmarked) [Example 74]: the IC50 in test [1] (setting [3]) worked out at 2.7 nM. Further, in test [2] (setting [4]), the EC50 worked out at 84 nM.

In the case of `CC(C)(O)[C@H](F)CNC(=O)c1cnc(Nc2ncc(C#N)cc2Cl)cc1NC1CCCC1O` (some centres unmarked) [Example 78], the IC50 in test [1] (setting [3]) came out at 3.7 nM. Further, the EC50 in test [2] (setting [4]) turned out to be 64 nM.

As for `CC(C)(O)[C@H](F)CNC(=O)c1cnc(Nc2ncc(C#N)cc2F)cc1NC1CCC(F)C1` (some centres unmarked) [Example 82], the IC50 in test [1] (setting [3]) came to 3 nM. For the same molecule, in test [2] (setting [4]), the EC50 amounted to 105 nM.

Regarding `CC(C)(O)[C@H](F)CNC(=O)c1cnc(Nc2ncc(C#N)cn2)cc1NC1CCC(F)C1` (some centres unmarked) [Example 87], the IC50 in test [1] (setting [3]) is 3.5 nM. Further, the EC50 in test [2] (setting [4]) turned out to be 197 nM.

Turning to `CC(C)(O)[C@H](F)CNC(=O)c1cnc(Nc2ncc(C#N)cn2)cc1NC1CCC(F)C1` (some centres unmarked) [Example 88], the IC50 in test [1] (setting [3]) amounted to 5.4 nM. Also, the EC50 in test [2] (setting [4]) is 266 nM.

For `CC(C)(O)[C@H](F)CNC(=O)c1cnc(Nc2ncc(F)cc2F)cc1NC1CCCOC1` (some centres unmarked) [Example 109], the IC50 in test [1] (setting [3]) was found to be 13.7 nM. In addition, in test [2] (setting [4]), the EC50 worked out at 350 nM.

For the molecule `CC(C)(O)[C@H](F)CNC(=O)c1cnc(Nc2ncc(F)cc2F)cc1NC1CCCOC1` (some centres unmarked) [Example 110], the IC50 in test [1] (setting [3]) worked out at 15.7 nM. Moreover, in test [2] (setting [4]), the EC50 was found to be 705 nM.

Consider `CC(C)(O)[C@H](F)CNC(=O)c1cnc(Nc2ncc(C#N)cc2F)cc1NC1CCC(F)C1` (some centres unmarked) [Example 115], for which the IC50 in test [1] (setting [3]) was found to be 4.5 nM. For the same molecule, the EC50 in test [2] (setting [4]) is 65 nM.

Take `CC(C)(O)[C@H](F)CNC(=O)c1cnc(Nc2ncc(C#N)cc2F)cc1Nc1ccc(C(N)=O)cc1` [Example 142]: the IC50 in test [1] (setting [3]) stood at 1.2 nM.

On to `CC(C)(O)[C@H](F)CNC(=O)c1cnc(Nc2ncc(C#N)cc2Cl)cc1Nc1cccc(C(N)=O)c1` [Example 143], for which the IC50 in test [1] (setting [3]) worked out at 2.9 nM.

Take `CC(C)Nc1cc(Nc2ncc(C#N)cc2F)ncc1C(=O)NC1CCC(C(C)(O)C2CC2)CC1` (centres unmarked) [Example 144]: the IC50 in test [1] (setting [5]) stood at 7.8 nM.

For `CC(C)Nc1cc(Nc2ncc(C#N)cc2F)ncc1C(=O)NC1CCC(C(C)(O)C2CC2)CC1` (centres unmarked) [Example 145], the IC50 in test [1] (setting [5]) is 4.3 nM. For the same molecule, the EC50 in test [2] (setting [4]) was 275 nM.

On to `Cn1nnnc1-c1cccc(Nc2cc(Nc3ncc(C#N)cc3Cl)ncc2C(=O)NC[C@@H](F)C(C)(C)O)c1` [Example 146], for which the IC50 in test [1] (setting [3]) was 8.5 nM.

On to `Cn1nnnc1-c1ccc(Nc2cc(Nc3ncc(C#N)cn3)ncc2C(=O)NC[C@@H](F)C(C)(C)O)cc1` [Example 147], for which the IC50 in test [1] (setting [3]) came out at 12.4 nM.

Take `Cn1nnnc1-c1ccc(Nc2cc(Nc3ncc(C#N)cc3Cl)ncc2C(=O)NC[C@@H](F)C(C)(C)O)cc1` [Example 148]: the IC50 in test [1] (setting [3]) was determined as 3.4 nM.

Turning to `CS(=O)(=O)[C@H]1CC[C@H](NC(=O)c2cnc(Nc3ncc(C#N)cc3Cl)cc2NC2CCOCC2)CC1` [Example 149], the IC50 in test [1] (setting [3]) was found to be 3 nM.

For the molecule `CC(C)(O)[C@H](F)CNC(=O)c1cnc(Nc2ncc(C#N)cc2Cl)cc1N[C@H]1CC[C@](C)(O)CC1` [Example 150], in test [1] (setting [3]), the IC50 stood at 1.4 nM.

Take `CS(=O)(=O)[C@H]1CC[C@H](NC(=O)c2cnc(Nc3ncc(C#N)cc3Cl)cc2NC2CC2)CC1` [Example 151]: the IC50 in test [1] (setting [3]) came out at 3.3 nM.

`CC(C)(O)[C@H](F)CNC(=O)c1cnc(Nc2ncc(C#N)cc2Cl)cc1N[C@H]1CC[C@@](C)(O)CC1` [Example 152]: the IC50 in test [1] (setting [3]) came out at 5.3 nM.

In the case of `CC(C)(O)[C@H](F)CNC(=O)c1cnc(Nc2ncc(C#N)cc2Cl)cc1Nc1ccc2ncsc2c1` [Example 153], the IC50 in test [1] (setting [3]) amounted to 5.6 nM.

`CC(C)(O)[C@H](F)CNC(=O)c1cnc(Nc2ncc(C#N)c(N)n2)cc1NC1CC1` [Example 154]: the IC50 in test [1] (setting [3]) worked out at 5.2 nM.

Take `CC(C)CNc1cc(Nc2ncc(C#N)cc2Cl)ncc1C(=O)NC[C@@H](F)C(C)(C)O` [Example 155]: in test [1] (setting [3]), the concentration for half-maximal inhibition (IC50) was 4.3 nM.

On to `CC(C)Nc1cc(Nc2ncc(C#N)cc2Cl)ncc1C(=O)NC[C@H](F)C(C)(C)O` [Example 156], for which the IC50 in test [1] (setting [3]) was 8.6 nM.

In the case of `CC(C)(O)[C@H](F)CNC(=O)c1cnc(Nc2ncc(C#N)cc2Cl)cc1NC1CCC(F)C1` (some centres unmarked) [Example 157], in test [1] (setting [3]), the IC50 was 2 nM. The EC50 in test [2] (Homo sapiens, PBMC, 5 h, values marked * are EC50, read-out: Cell EC50 (*EC50)) was found to be 71 nM.

`CC(C)(O)[C@H](F)CNC(=O)c1cnc(Nc2ncc(C#N)cc2Cl)cc1NC1CCC(F)C1` (some centres unmarked) [Example 158]: the IC50 in test [1] (setting [3]) came out at 2.3 nM. Besides, the EC50 in test [2] (setting [4]) was found to be 102 nM.

With `CC(F)[C@@H](C)Nc1cc(Nc2ncc(C#N)cc2Cl)ncc1C(=O)NC[C@@H](F)C(C)(C)O` (some centres unmarked) [Example 159], in test [2] (setting [4]), the EC50 is 130 nM.

Consider `CC(F)[C@@H](C)Nc1cc(Nc2ncc(C#N)cc2Cl)ncc1C(=O)NC[C@@H](F)C(C)(C)O` (some centres unmarked) [Example 160], for which the EC50 in test [2] (setting [4]) turned out to be 846 nM.

Turning to `CS(=O)(=O)[C@H]1CC[C@H](NC(=O)c2cnc(Nc3ncc(C#N)cc3F)cc2Nc2cccc(C(N)=O)c2)CC1` [Example 161], the IC50 in test [1] (setting [3]) was 15.5 nM.

For the molecule `CC(C)(O)[C@H](F)CNC(=O)c1cnc(Nc2ncc(C#N)cc2Cl)cc1Nc1cccc(C#N)c1` [Example 162], the IC50 in test [1] (setting [3]) amounted to 2.6 nM.

With `CC(Nc1cc(Nc2ncc(C#N)cn2)ncc1C(=O)NC[C@@H](F)C(C)(C)O)C1CC1` (some centres unmarked) [Example 163], the IC50 in test [1] (setting [3]) worked out at 10.2 nM.

Consider `CC(C)(O)[C@H](F)CNC(=O)c1cnc(Nc2ncc(C#N)cc2F)cc1NC1COC1` [Example 164], for which the IC50 in test [1] (setting [3]) stood at 8 nM.

As to `COC(=O)N[C@H]1CC[C@H](NC(=O)c2cnc(Nc3ncc(C#N)cc3F)cc2NC(C)C)CC1` [Example 165], the IC50 in test [1] (setting [3]) was 11.3 nM.

Regarding `CC(C)Nc1cc(Nc2ncc(C#N)cc2F)ncc1C(=O)NC1CCC(O)(c2ccnn2C)CC1` (centres unmarked) [Example 166], the IC50 in test [1] (setting [3]) was 8.2 nM.

Regarding `CC(C)Nc1cc(Nc2ncc(C#N)cc2F)ncc1C(=O)NC1CCC(O)(c2nccs2)CC1` (centres unmarked) [Example 167], the IC50 in test [1] (setting [3]) worked out at 13 nM.
